Assay results as given in patent US10925856B2, “Methods and compositions involving bucindolol for the treatment of atrial fibrillation” (priority 2018, dated 2021).
Where two headings read alike, the source gives them in different places.

Legend:
clinical = details: human, in vivo
Source text: Based on FDA interactions and recommendations^63 the inventor sought to categorize CYP2D6 genetic variation in every patient in GENETIC-AF.
CYP2D6 polymorphisms were identified using the xTAG® CYP2D6 Kit v3 manufactured by Luminex Corporation, with the assay performed by Esoterix, Boulder, Colo. on DNA extracted from whole blood by LabCorp's subsidiary Covance, of Salt Lake City, Utah See Table 41 in the Appendix for identified polymorphisms.
Sparse sampling of bucindolol hydrochloride plasma concentrations for population pharmacokinetic analysis. The analysis plan for the substudy will be prepared separately prior to unblinding.

[1] = system: patients with HF and/or AF; assay: Literature β-blocker trials and meta-analyses for AF prevention / recurrence; assay type: in vivo, human
[2] = target: human β1-adrenergic receptor (Homo sapiens, UniProt P08588); details: cited from earlier work
Sequence of human β1-adrenergic receptor (P08588 whole entry): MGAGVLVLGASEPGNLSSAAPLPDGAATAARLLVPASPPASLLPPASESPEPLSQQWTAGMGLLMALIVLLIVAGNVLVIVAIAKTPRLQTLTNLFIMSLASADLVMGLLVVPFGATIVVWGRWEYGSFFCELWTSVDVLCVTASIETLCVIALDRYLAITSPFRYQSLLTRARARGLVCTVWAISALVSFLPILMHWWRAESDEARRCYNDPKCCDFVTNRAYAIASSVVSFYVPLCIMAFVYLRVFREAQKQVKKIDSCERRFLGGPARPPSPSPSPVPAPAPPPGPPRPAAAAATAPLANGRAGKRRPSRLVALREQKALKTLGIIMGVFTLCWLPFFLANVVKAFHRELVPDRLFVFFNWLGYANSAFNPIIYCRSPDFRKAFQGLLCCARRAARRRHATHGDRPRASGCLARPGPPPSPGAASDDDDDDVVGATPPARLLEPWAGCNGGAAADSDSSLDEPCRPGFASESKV

[3] = system: advanced HFrEF patients (ADRB1 Arg389Gly / ADRA2C Ins322-325Del genotypes); details: cited from earlier work
NT-proBNP = assay: Plasma NT-proBNP (electrochemiluminescence immunoassay)
[4] = BEST, {ADRA2C Del carrier and ADRB1 Arg389Arg}
[5] = BEST, {ADRA2C Del carriers and ADRB1 389Gly carriers}
[6] = Europe excluding Hungary (n = 48)
[7] = change from baseline, Canada (n = 59)
[8] = change from baseline, Entire Cohort (n = 267)
[9] = change from baseline, Europe excluding Hungary (n = 48)
[10] = change from baseline, Hungary (n = 33)
[11] = change from baseline, U.S. (n = 127)

For `CC(C)(Cc1c[nH]c2ccccc12)NCC(O)COc1ccccc1C#N` (centres unmarked) [bucindolol, 2-(3-(1-(1H-indol-3-yl)-2-methylpropan-2-ylamino)-2-hydroxypropoxy)benzonitrile], the “Plasma concentration in PMs relative to IMs” value (clinical; 12 weeks) was 5.7 fold, the concentration at 12 weeks (clinical; Drug levels as measured in PMs) was 200 to 500 nM and the “Predicted relative effect size in favor of bucindolol vs. metoprolol” value ([1]; RES = Ln HzR1/Ln HzR2, prevention of AF in HFrEF) was 2.1 fold. The “Effect size in a direct comparison of bucindolol to metoprolol (estimated)” value ([1]; from relative effect size) was 51%, the “Risk ratio in a direct comparison of bucindolol to metoprolol (estimated)” value ([1]; from relative effect size) was 0.49 and the “KD (KA in the occupancy formula), dissociation constant for human β1-ARs” value [2] was 3.6 nM. For the same molecule, the “Reduction in NE” value ([3]; BEST trial at 12 weeks) was 75 pg/mL, the “Decrease in NE (sympatholysis)” value ([3]; BEST, ADRA2C Del genotypes) was 153 pg/mL and the “Decrease in NE (sympatholysis)” value ([3]; BEST, ADRA2C Ins homozygotes) was 50 pg/mL. For the same molecule, the “Effect sizes, time to ACM or HF hospitalization and CV mortality or CV hospitalization” value ([3]; BEST, ADRB1 Arg389Arg subset in permanent AF) was “exceeding 70%”, the “Reduction in the development (risk) of AF vs. placebo” value ([3]; BEST, ADRB1 Arg389Arg, sinus rhythm at baseline) was 74% and the “Reduction in NE” value ([3]; BEST, {ADRA2C Del carrier and ADRB1 Arg389Arg} combination genotype) was 120 pg/mL. The “Hazard ratio, ACM, bucindolol vs. placebo” value [3, 4] was 0.50, the “Hazard ratio, CVM, bucindolol vs. placebo” value [3, 4] was 0.40 and the “Hazard ratio, heart failure hospitalization burden, bucindolol vs. placebo” value [3, 4] was 0.60. For the same molecule, the “Hazard ratio, ACM, bucindolol vs. placebo” value [3, 5] was 1.04, the “Hazard ratio, CVM, bucindolol vs. placebo” value [3, 5] was 1.11 and the “Hazard ratio, heart failure hospitalization burden, bucindolol vs. placebo” value [3, 5] was 1.19. The “NT-proBNP, Week 4 Mean” value (NT-proBNP; Canada) was 859 pg/mL, the “NT-proBNP, Week 4 Median” value (NT-proBNP; Canada) was 499 pg/mL and the “NT-proBNP, ΔWeek 4 Mean ± SEM” value (NT-proBNP; Canada) was -455 pg/mL. The “NT-proBNP, ΔWeek 4 Median” value (NT-proBNP; Canada) was -184 pg/mL, the “NT-proBNP, Baseline Mean ± SD” value (NT-proBNP; Canada (n = 59)) was 1314 ± 1503 pg/mL and the “NT-proBNP, Baseline Median” value (NT-proBNP; Canada (n = 59)) was 790 pg/mL. The “NT-proBNP, Week 12 Mean ± SD” value (NT-proBNP; Canada (n = 59)) was 674 ± 767 pg/mL, the “NT-proBNP, Week 12 Median” value (NT-proBNP; Canada (n = 59)) was 432 pg/mL and the “NT-proBNP, Week 24 Mean ± SD” value (NT-proBNP; Canada (n = 59)) was 831 ± 961 pg/mL. For the same molecule, the “NT-proBNP, Week 24 Median” value (NT-proBNP; Canada (n = 59)) was 425 pg/mL, the “NT-proBNP, Week 4 Mean” value (NT-proBNP; Entire Cohort) was 1196 pg/mL and the “NT-proBNP, Week 4 Median” value (NT-proBNP; Entire Cohort) was 613 pg/mL. For the same molecule, the “NT-proBNP, ΔWeek 4 Mean ± SEM” value (NT-proBNP; Entire Cohort) was -0.4 pg/mL, the “NT-proBNP, ΔWeek 4 Median” value (NT-proBNP; Entire Cohort) was -96 pg/mL and the “NT-proBNP, Baseline Mean ± SD” value (NT-proBNP; Entire Cohort (n = 267)) was 1159 ± 1306 pg/mL. The “NT-proBNP, Baseline Median” value (NT-proBNP; Entire Cohort (n = 267)) was 777 pg/mL, the “NT-proBNP, Week 12 Mean ± SD” value (NT-proBNP; Entire Cohort (n = 267)) was 1052 ± 1923 pg/mL and the “NT-proBNP, Week 12 Median” value (NT-proBNP; Entire Cohort (n = 267)) was 470 pg/mL. For the same molecule, the “NT-proBNP, Week 24 Mean ± SD” value (NT-proBNP; Entire Cohort (n = 267)) was 1135 ± 1632 pg/mL, the “NT-proBNP, Week 24 Median” value (NT-proBNP; Entire Cohort (n = 267)) was 502 pg/mL and the “NT-proBNP, Week 4 Mean” value (NT-proBNP; Europe excluding Hungary) was 756 pg/mL. For the same molecule, the “NT-proBNP, Week 4 Median” value (NT-proBNP; Europe excluding Hungary) was 431 pg/mL, the “NT-proBNP, ΔWeek 4 Mean ± SEM” value (NT-proBNP; Europe excluding Hungary) was -72 pg/mL and the “NT-proBNP, ΔWeek 4 Median” value (NT-proBNP; Europe excluding Hungary) was -108 pg/mL. The “NT-proBNP, Baseline Mean ± SD” value (NT-proBNP; [6]) was 893 ± 849 pg/mL, the “NT-proBNP, Baseline Median” value (NT-proBNP; [6]) was 600 pg/mL and the “NT-proBNP, Week 12 Mean ± SD” value (NT-proBNP; [6]) was 782 pg/mL. For the same molecule, the “NT-proBNP, Week 12 Median” value (NT-proBNP; [6]) was 376 pg/mL, the “NT-proBNP, Week 24 Mean ± SD” value (NT-proBNP; [6]) was 1859 pg/mL and the “NT-proBNP, Week 24 Median” value (NT-proBNP; [6]) was 593 pg/mL. For the same molecule, the “NT-proBNP, Week 4 Mean” value (NT-proBNP; Hungary) was 1616 pg/mL, the “NT-proBNP, Week 4 Median” value (NT-proBNP; Hungary) was 594 pg/mL and the “NT-proBNP, ΔWeek 4 Mean ± SEM” value (NT-proBNP; Hungary) was “+461 pg/ml”. The “NT-proBNP, ΔWeek 4 Median” value (NT-proBNP; Hungary) was -47 pg/mL, the “NT-proBNP, Baseline Mean ± SD” value (NT-proBNP; Hungary (n = 33)) was 989 ± 1428 pg/mL and the “NT-proBNP, Baseline Median” value (NT-proBNP; Hungary (n = 33)) was 567 pg/mL. For the same molecule, the “NT-proBNP, Week 12 Mean ± SD” value (NT-proBNP; Hungary (n = 33)) was 1095 ± 1929 pg/mL, the “NT-proBNP, Week 12 Median” value (NT-proBNP; Hungary (n = 33)) was 446 pg/mL and the “NT-proBNP, Week 24 Mean ± SD” value (NT-proBNP; Hungary (n = 33)) was 1244 ± 2515 pg/mL. The “NT-proBNP, Week 24 Median” value (NT-proBNP; Hungary (n = 33)) was 244 pg/mL, the “NT-proBNP, Week 4 Mean” value (NT-proBNP; U.S.) was 1501 pg/mL and the “NT-proBNP, Week 4 Median” value (NT-proBNP; U.S.) was 796 pg/mL. The “NT-proBNP, ΔWeek 4 Mean ± SEM” value (NT-proBNP; U.S.) was “+182 pg/ml”, the “NT-proBNP, ΔWeek 4 Median” value (NT-proBNP; U.S.) was -75 pg/mL and the “NT-proBNP, Baseline Mean ± SD” value (NT-proBNP; U.S. (n = 127)) was 1245 ± 1332 pg/mL. For the same molecule, the “NT-proBNP, Baseline Median” value (NT-proBNP; U.S. (n = 127)) was 904 pg/mL, the “NT-proBNP, Week 12 Mean ± SD” value (NT-proBNP; U.S. (n = 127)) was 1383 ± 2538 pg/mL and the “NT-proBNP, Week 12 Median” value (NT-proBNP; U.S. (n = 127)) was 561 pg/mL. For the same molecule, the “NT-proBNP, Week 24 Mean ± SD” value (NT-proBNP; U.S. (n = 127)) was 1124 ± 1516 pg/mL, the “NT-proBNP, Week 24 Median” value (NT-proBNP; U.S. (n = 127)) was 653 pg/mL and the NT-proBNP decrease (NT-proBNP; Week 24, Canadian cohort) was −39%. For the same molecule, the “NT-proBNP decrease relative to that in the metoprolol group” value (NT-proBNP; Week 24, Canadian cohort) was roughly 3 fold, the “NT-proBNP, ΔWeek 12 Mean ± SEM” value (NT-proBNP; [7]) was -602 ± 232 pg/mL and the “NT-proBNP, ΔWeek 12 Median” value (NT-proBNP; [7]) was -176 pg/mL. The “NT-proBNP, ΔWeek 24 Mean ± SEM” value (NT-proBNP; [7]) was -442 ± 223 pg/mL, the “NT-proBNP, ΔWeek 24 Median” value (NT-proBNP; [7]) was -271 pg/mL and the “NT-proBNP, ΔWeek 12 Mean ± SEM” value (NT-proBNP; [8]) was -108 ± 133 pg/mL. The “NT-proBNP, ΔWeek 12 Median” value (NT-proBNP; [8]) was -96 pg/mL, the “NT-proBNP, ΔWeek 24 Mean ± SEM” value (NT-proBNP; [8]) was -92 ± 136 pg/mL and the “NT-proBNP, ΔWeek 24 Median” value (NT-proBNP; [8]) was -197 pg/mL. For the same molecule, the “NT-proBNP, ΔWeek 12 Mean ± SEM” value (NT-proBNP; [9]) was -101 pg/mL, the “NT-proBNP, ΔWeek 12 Median” value (NT-proBNP; [9]) was -92 pg/mL and the “NT-proBNP, ΔWeek 24 Mean ± SEM” value (NT-proBNP; [9]) was “+983 pg/ml”. For the same molecule, the “NT-proBNP, ΔWeek 24 Median” value (NT-proBNP; [9]) was -48 pg/mL, the “NT-proBNP, ΔWeek 12 Mean ± SEM” value (NT-proBNP; [10]) was “+40 ± 170 pg/ml” and the “NT-proBNP, ΔWeek 12 Median” value (NT-proBNP; [10]) was -96 pg/mL. The “NT-proBNP, ΔWeek 24 Mean ± SEM” value (NT-proBNP; [10]) was “+41 ± 276 pg/ml”, the “NT-proBNP, ΔWeek 24 Median” value (NT-proBNP; [10]) was -176 pg/mL and the “NT-proBNP, ΔWeek 12 Mean ± SEM” value (NT-proBNP; [11]) was “+130 ± 262 pg/ml”. For the same molecule, the “NT-proBNP, ΔWeek 12 Median” value (NT-proBNP; [11]) was -81 pg/mL, the “NT-proBNP, ΔWeek 24 Mean ± SEM” value (NT-proBNP; [11]) was -163 ± 161 pg/mL and the “NT-proBNP, ΔWeek 24 Median” value (NT-proBNP; [11]) was -315 pg/mL. The “NT-proBNP, ΔWeek 4 Median” value (NT-proBNP; change from baseline, entire cohort) was -96 pg/mL, the NT-proBNP decrease (NT-proBNP; end of the 24-week follow-up period, U.S.) was 33% and the “NT-proBNP decrease from baseline” value (NT-proBNP; week 4, entire cohort) was 96 pg/mL. For the same molecule, the “NT-proBNP decrease from baseline” value (NT-proBNP; week 12, entire cohort) was 96 pg/mL and the “NT-proBNP decrease relative to baseline” value (NT-proBNP; week 24, entire cohort) was 197 pg/mL.
